Measurements published in US9808003B2, “Herbicidally active 2-(substituted-phenyl)-cyclopentane-1,3-dione compounds and derivatives thereof” (Syngenta Limited, priority 2013, dated 2017).
Read-outs that look alike come from different tables or passages of the source.

Legend:
Format in all cases: in vivo
[1] = test system: Spring Barley “Harrington”; experiment: Test 1B glasshouse assay, post-emergence herbicidal activity against cereal crops; conditions: 60 g/ha herbicide, 14 DAA
In short: (§1)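 Technical compound in IF50 with acetone, diluted into 0.5% v/v Adigor, sprayed post-emergence on 14-day glasshouse plants (22/16 °C, 16 h light, 65% humidity), typically at 60, 90 or 120 g/ha, with or without 50 g/ha cloquintocet-mexyl safener. Phytotoxicity scored visually 14 DAA (0–100%), mean of two replicates.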

[2] = test system: Spring Wheat “Teal”; experiment: as above; conditions: 60 g/ha herbicide, 14 DAA
In short: as §1

[3] = test system: Winter Barley “Suzuka”; experiment: as above; conditions: 60 g/ha herbicide, 14 DAA
In short: as §1

[4] = test system: Winter Wheat “Hereward”; experiment: as above; conditions: 60 g/ha herbicide, 14 DAA
In short: as §1

[5] = test system: Alopecurus myosuroides (ALOMY); experiment: Test 1A glasshouse assay, pre-emergence herbicidal activity; conditions: 312 h, read-out: Pre-emergence herbicidal activity (% phytotoxicity) ALOMY
Description: (§2) Seeds of a variety of test species were sown in standard soil in pots. After cultivation for one day (pre-emergence) or after 8 days cultivation (post-emergence) under controlled conditions in a glasshouse (at 24/16° C., day/night; 14 hours light; 65% humidity), the plants were sprayed with an aqueous spray solution derived from the formulation of the technical active ingredient in acetone/water (50:50) solution containing 0.5% Tween 20 (polyoxyethelyene sorbitan monolaurate, CAS RN 9005-64-5). The test plants were then grown under controlled conditions in a glasshouse (at 24/16° C., day/night; 14 hours light; 65% humidity) and watered twice daily. 13 days after application of the test herbicide, for pre- and post-emergence, the test was evaluated visually for percentage phytotoxicity to the plant (where 100%=total damage to plant; 0%=no damage to plant).
(§3) Test plants: Lolium perenne (LOLPE), Alopecurus myosuroides (ALOMY), Echinochloa crus-galli (ECHCG), and Avena fatua (AVEFA); these are all grassy monocotyledonous weeds.

[6] = test system: Lolium perenne (LOLPE); experiment: as above; conditions: 312 h, read-out: Pre-emergence herbicidal activity (% phytotoxicity) LOLPE
Description: as §2, §3

[7] = test system: Avena fatua (AVEFA); experiment: as above; conditions: 312 h, read-out: Pre-emergence herbicidal activity (% phytotoxicity) AVEFA
Description: as §2, §3

[8] = test system: Echinochloa crus-galli (ECHCG); experiment: as above; conditions: 312 h, read-out: Pre-emergence herbicidal activity (% phytotoxicity) ECHCG
Description: as §2, §3

[9] = test system: Poa annua (POAAN); experiment: Test 1B glasshouse assay, post-emergence herbicidal activity against grassy weeds; conditions: 60 g/ha herbicide, 14 DAA
In short: (§4)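 Post-emergence spray, 14-day-old plants, glasshouse 22/16 °C day/night, 16 h light, 65% humidity. Test herbicide typically 60, 90 or 120 g/ha; cloquintocet-mexyl safener 50 g/ha optional at 60, included at 90/120. Scored visually 14 DAA, 0–100% damage, 2 reps averaged.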

[10] = test system: Lolium multiflorum (LOLMU); experiment: as above; conditions: 60 g/ha herbicide, 14 DAA
In short: as §4

[11] = test system: Alopecurus myosuroides (ALOMY); experiment: as above; conditions: 60 g/ha herbicide, 14 DAA
In short: as §4

[12] = test system: Avena fatua (AVEFA); experiment: as above; conditions: 60 g/ha herbicide, 14 DAA
In short: as §4

[13] = test system: Setaria viridis (SETVI); experiment: as above; conditions: 60 g/ha herbicide, 14 DAA
In short: as §4

[14] = test system: Alopecurus myosuroides (ALOMY); experiment: Test 1A glasshouse assay, post-emergence herbicidal activity; conditions: Alopecurus myosuroides, 312 h, read-out: Post-emergence Herbicidal Activity (% Phytotoxicity) ALOMY
In short: (§5)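 Pots sown in standard soil; plants grown 8 days in glasshouse (24/16 °C day/night, 14 h light, 65% humidity), then sprayed with compound formulated in acetone/water (50:50) with 0.5% Tween 20. Regrown under same conditions, watered twice daily; visual % phytotoxicity scored 13 days after application (0 = none, 100 = total damage).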

[15] = test system: Lolium perenne (LOLPE); experiment: as above; conditions: Lolium perenne, 312 h, read-out: Post-emergence Herbicidal Activity (% Phytotoxicity) LOLPE
In short: as §5

[16] = test system: Avena fatua (AVEFA); experiment: as above; conditions: Avena fatua, 312 h, read-out: Post-emergence Herbicidal Activity (% Phytotoxicity) AVEFA
In short: as §5

[17] = test system: Echinochloa crus-galli (ECHCG); experiment: as above; conditions: Echinochloa crus-galli, 312 h, read-out: Post-emergence Herbicidal Activity (% Phytotoxicity) ECHCG
In short: as §5

[18] = 250 g/ha, 13 days after application
[19] = application rate 250 g/ha, 13 days after application, visual (100%=total damage; 0%=no damage)

What does the source list for `Cc1cc(-n2cc(Cl)cn2)cc(C)c1C1C(=O)CC(CCNC(=O)c2ccccn2)C1=O` (racemic) [Compound A34, N-[2-[3-[4-(4-chloropyrazol-1-yl)-2,6-dimethyl-phenyl]-2,4-dioxo-cyclopentyl]ethyl]pyridine-2-carboxamide]?
Post-emergence herbicidal activity against cereal crops, percentage phytotoxicity, Spring Barley “Harrington” ([1]; 0 g/ha cloquintocet-mexyl): 83%; Post-emergence herbicidal activity against cereal crops, percentage phytotoxicity, Spring Barley “Harrington” ([1]; 50 g/ha cloquintocet-mexyl): 33%; Post-emergence herbicidal activity against cereal crops, percentage phytotoxicity, Spring Wheat “Teal” ([2]; 0 g/ha cloquintocet-mexyl): 43%; Post-emergence herbicidal activity against cereal crops, percentage phytotoxicity, Spring Wheat “Teal” ([2]; 50 g/ha cloquintocet-mexyl): 10%; Post-emergence herbicidal activity against cereal crops, percentage phytotoxicity, Winter Barley “Suzuka” ([3]; 0 g/ha cloquintocet-mexyl): 83%; Post-emergence herbicidal activity against cereal crops, percentage phytotoxicity, Winter Barley “Suzuka” ([3]; 50 g/ha cloquintocet-mexyl): 38%; Post-emergence herbicidal activity against cereal crops, percentage phytotoxicity, Winter Wheat “Hereward” ([4]; 0 g/ha cloquintocet-mexyl): 20%; Post-emergence herbicidal activity against cereal crops, percentage phytotoxicity, Winter Wheat “Hereward” ([4]; 50 g/ha cloquintocet-mexyl): 5%; inhibition at 250 g/ha [5]: 90%; inhibition at 250 g/ha [6]: 100%; inhibition at 250 g/ha [7]: 100%; inhibition at 250 g/ha [8]: 100%; Post-emergence herbicidal activity, percentage phytotoxicity, POAAN ([9]; 0 g/ha cloquintocet-mexyl): 78%; Post-emergence herbicidal activity, percentage phytotoxicity, POAAN ([9]; 50 g/ha cloquintocet-mexyl): 75%; Post-emergence herbicidal activity, percentage phytotoxicity, LOLMU ([10]; 0 g/ha cloquintocet-mexyl): 83%; Post-emergence herbicidal activity, percentage phytotoxicity, LOLMU ([10]; 50 g/ha cloquintocet-mexyl): 90%; Post-emergence herbicidal activity, percentage phytotoxicity, ALOMY ([11]; 0 g/ha cloquintocet-mexyl): 65%; Post-emergence herbicidal activity, percentage phytotoxicity, ALOMY ([11]; 50 g/ha cloquintocet-mexyl): 73%; Post-emergence herbicidal activity, percentage phytotoxicity, AVEFA ([12]; 0 g/ha cloquintocet-mexyl): 100%; Post-emergence herbicidal activity, percentage phytotoxicity, AVEFA ([12]; 50 g/ha cloquintocet-mexyl): 100%; Post-emergence herbicidal activity, percentage phytotoxicity, SETVI ([13]; 0 g/ha cloquintocet-mexyl): 80%; Post-emergence herbicidal activity, percentage phytotoxicity, SETVI ([13]; 50 g/ha cloquintocet-mexyl): 85%; pest or weed control at 250 g/ha [14]: 90%; pest or weed control at 250 g/ha [15]: 100%; pest or weed control at 250 g/ha [16]: 100%; pest or weed control at 250 g/ha [17]: 100%

`Cc1cc(C)c(C2C(=O)CC(CCNC(=O)C(C)(C)C)C2=O)c(C)c1` (centres unmarked) [Compound A2] was tested. Which inhibition at 250 g/ha [5, 18] did it give?
Its inhibition at 250 g/ha is 90%.

What about the inhibition at 250 g/ha [6, 18] of the same compound?
The inhibition at 250 g/ha was 100%.

What about the inhibition at 250 g/ha [7, 18] of the same compound?
Its inhibition at 250 g/ha is 70%.

And the inhibition at 250 g/ha [8, 18]?
Its inhibition at 250 g/ha is 70%.

And the pest or weed control at 250 g/ha [14, 19]?
The pest or weed control at 250 g/ha was 90%.

And the pest or weed control at 250 g/ha [15, 19]?
Its pest or weed control at 250 g/ha is 100%.

And the pest or weed control at 250 g/ha [16, 19]?
The pest or weed control at 250 g/ha was 80%.

What about the pest or weed control at 250 g/ha [17, 19] of the same compound?
The pest or weed control at 250 g/ha was 80%.

Which results are given for `Cc1cc(C)c(C2C(=O)CC(CCNC(=O)c3ccccn3)C2=O)c(C)c1` (centres unmarked) [Compound A3]?
inhibition at 250 g/ha [5, 18]: 90%; inhibition at 250 g/ha [6, 18]: 100%; inhibition at 250 g/ha [7, 18]: 90%; inhibition at 250 g/ha [8, 18]: 100%; pest or weed control at 250 g/ha [14, 19]: 90%; pest or weed control at 250 g/ha [15, 19]: 100%; pest or weed control at 250 g/ha [16, 19]: 100%; pest or weed control at 250 g/ha [17, 19]: 100%

How did the inhibition at 250 g/ha [5, 18] turn out when `Cc1cc(C)c(C2C(=O)CC(CCNC(=O)C3CCCCC3)C2=O)c(C)c1` (centres unmarked) [Compound A13] was run?
The inhibition at 250 g/ha was 80%.

What about the inhibition at 250 g/ha [6, 18] of the same compound?
Its inhibition at 250 g/ha is 90%.

And the inhibition at 250 g/ha [7, 18]?
The inhibition at 250 g/ha was 80%.

And the inhibition at 250 g/ha [8, 18]?
Its inhibition at 250 g/ha is 100%.

And the pest or weed control at 250 g/ha [14, 19]?
Its pest or weed control at 250 g/ha is 70%.

And the pest or weed control at 250 g/ha [15, 19]?
Its pest or weed control at 250 g/ha is 90%.

What about the pest or weed control at 250 g/ha [16, 19] of the same compound?
The pest or weed control at 250 g/ha was 70%.

What about the pest or weed control at 250 g/ha [17, 19] of the same compound?
The pest or weed control at 250 g/ha was 100%.
